{"source": "PubChem BioAssay (NCI)", "test_in_all_cases": "growth of human tumour cells (NCI), 48 h", "key": {"[1]": {"system": "786-0 renal"}, "[2]": {"system": "A498 renal"}, "[3]": {"system": "A549 NSCLC"}, "[4]": {"system": "ACHN renal"}, "[5]": {"system": "CCRF-CEM leukemia"}, "[6]": {"system": "COLO 205 colon"}, "[7]": {"system": "DLD-1 colon"}, "[8]": {"system": "DMS 273 small cell lung"}, "[9]": {"system": "EKVX NSCLC"}, "[10]": {"system": "HCC-2998 colon"}, "[11]": {"system": "HCT-116 colon"}, "[12]": {"system": "HCT-15 colon"}, "[13]": {"system": "HL-60(TB) leukemia"}, "[14]": {"system": "HOP-18 NSCLC"}, "[15]": {"system": "HOP-62 NSCLC"}, "[16]": {"system": "HOP-92 NSCLC"}, "[17]": {"system": "HT29 colon"}, "[18]": {"system": "IGROV1 ovarian"}, "[19]": {"system": "K-562 leukemia"}, "[20]": {"system": "KM12 colon"}, "[21]": {"system": "KM20L2 colon"}, "[22]": {"system": "LOX IMVI melanoma"}, "[23]": {"system": "LXFL 529 NSCLC"}, "[24]": {"system": "M14 melanoma"}, "[25]": {"system": "M19-MEL melanoma"}, "[26]": {"system": "MALME-3M melanoma"}, "[27]": {"system": "MOLT-4 leukemia"}, "[28]": {"system": "NCI-H226 lung"}, "[29]": {"system": "NCI-H23 lung"}, "[30]": {"system": "NCI-H460 lung"}, "[31]": {"system": "NCI-H522 lung"}, "[32]": {"system": "OVCAR-3 ovarian"}, "[33]": {"system": "OVCAR-4 ovarian"}, "[34]": {"system": "OVCAR-5 ovarian"}, "[35]": {"system": "OVCAR-8 ovarian"}, "[36]": {"system": "RPMI-8226 leukemia"}, "[37]": {"system": "RXF 393 renal"}, "[38]": {"system": "SF-268 CNS"}, "[39]": {"system": "SF-295 CNS"}, "[40]": {"system": "SF-539 CNS"}, "[41]": {"system": "SK-MEL-2 melanoma"}, "[42]": {"system": "SK-MEL-28 melanoma"}, "[43]": {"system": "SK-OV-3 ovarian"}, "[44]": {"system": "SN12C renal"}, "[45]": {"system": "SNB-19 CNS"}, "[46]": {"system": "SR leukemia"}, "[47]": {"system": "SW-620 colon"}, "[48]": {"system": "TK-10 renal"}, "[49]": {"system": "U251 CNS"}, "[50]": {"system": "UACC-257 melanoma"}, "[51]": {"system": "UACC-62 melanoma"}, "[52]": {"system": "UO-31 renal"}, "[53]": {"system": "XF 498 CNS"}, "[54]": {"system": "CAKI-1 renal"}, "[55]": {"system": "SK-MEL-5 melanoma"}, "[56]": {"system": "SNB-75 CNS"}}, "note": "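How tested: cells in 96-well plates exposed to compound for 48 hours at five concentrations. TGI denotes the concentration required for complete inhibition of growth.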"}
{"smiles": "C[C@@H](CC(O)C1OC1(C)C)[C@@H]1CC[C@]2(C)C3=CCC4C(C)(C)C(O)CC[C@]4(C)C3CCC12C", "note": "(stereo partly specified)", "values": [{"measurement": "TGI", "setting": "[1]", "result": 33.9, "unit": "µM"}, {"measurement": "TGI", "setting": "[2]", "result": 77.3, "unit": "µM"}, {"measurement": "TGI", "setting": "[3]", "result": 32.9, "unit": "µM"}, {"measurement": "TGI", "setting": "[4]", "result": 88.8, "unit": "µM"}, {"measurement": "TGI", "setting": "[5]", "result": "> 100", "unit": "µM"}, {"measurement": "TGI", "setting": "[6]", "result": 60.7, "unit": "µM"}, {"measurement": "TGI", "setting": "[7]", "result": "> 100", "unit": "µM"}, {"measurement": "TGI", "setting": "[8]", "result": 29.2, "unit": "µM"}, {"measurement": "TGI", "setting": "[9]", "result": "> 100", "unit": "µM"}, {"measurement": "TGI", "setting": "[10]", "result": "> 100", "unit": "µM"}, {"measurement": "TGI", "setting": "[11]", "result": 31.3, "unit": "µM"}, {"measurement": "TGI", "setting": "[12]", "result": "> 100", "unit": "µM"}, {"measurement": "TGI", "setting": "[13]", "result": 24.9, "unit": "µM"}, {"measurement": "TGI", "setting": "[14]", "result": 80.7, "unit": "µM"}, {"measurement": "TGI", "setting": "[15]", "result": "> 100", "unit": "µM"}, {"measurement": "TGI", "setting": "[16]", "result": 41.9, "unit": "µM"}, {"measurement": "TGI", "setting": "[17]", "result": 24.8, "unit": "µM"}, {"measurement": "TGI", "setting": "[18]", "result": "> 100", "unit": "µM"}, {"measurement": "TGI", "setting": "[19]", "result": 73.1, "unit": "µM"}, {"measurement": "TGI", "setting": "[20]", "result": "> 100", "unit": "µM"}, {"measurement": "TGI", "setting": "[21]", "result": 48.6, "unit": "µM"}, {"measurement": "TGI", "setting": "[22]", "result": "> 100", "unit": "µM"}, {"measurement": "TGI", "setting": "[23]", "result": 25.6, "unit": "µM"}, {"measurement": "TGI", "setting": "[24]", "result": 42.1, "unit": "µM"}, {"measurement": "TGI", "setting": "[25]", "result": 49.9, "unit": "µM"}, {"measurement": "TGI", "setting": "[26]", "result": 31.1, "unit": "µM"}, {"measurement": "TGI", "setting": "[27]", "result": "> 100", "unit": "µM"}, {"measurement": "TGI", "setting": "[28]", "result": 45.3, "unit": "µM"}, {"measurement": "TGI", "setting": "[29]", "result": 75.4, "unit": "µM"}, {"measurement": "TGI", "setting": "[30]", "result": "> 100", "unit": "µM"}, {"measurement": "TGI", "setting": "[31]", "result": 32.6, "unit": "µM"}, {"measurement": "TGI", "setting": "[32]", "result": "> 100", "unit": "µM"}, {"measurement": "TGI", "setting": "[33]", "result": "> 100", "unit": "µM"}, {"measurement": "TGI", "setting": "[34]", "result": "> 100", "unit": "µM"}, {"measurement": "TGI", "setting": "[35]", "result": "> 100", "unit": "µM"}, {"measurement": "TGI", "setting": "[36]", "result": "> 100", "unit": "µM"}, {"measurement": "TGI", "setting": "[37]", "result": 42.1, "unit": "µM"}, {"measurement": "TGI", "setting": "[38]", "result": 85.4, "unit": "µM"}, {"measurement": "TGI", "setting": "[39]", "result": 40.8, "unit": "µM"}, {"measurement": "TGI", "setting": "[40]", "result": 54.4, "unit": "µM"}, {"measurement": "TGI", "setting": "[41]", "result": 57.4, "unit": "µM"}, {"measurement": "TGI", "setting": "[42]", "result": 41.9, "unit": "µM"}, {"measurement": "TGI", "setting": "[43]", "result": 58.9, "unit": "µM"}, {"measurement": "TGI", "setting": "[44]", "result": "> 100", "unit": "µM"}, {"measurement": "TGI", "setting": "[45]", "result": "> 100", "unit": "µM"}, {"measurement": "TGI", "setting": "[46]", "result": "> 100", "unit": "µM"}, {"measurement": "TGI", "setting": "[47]", "result": "> 100", "unit": "µM"}, {"measurement": "TGI", "setting": "[48]", "result": 61.6, "unit": "µM"}, {"measurement": "TGI", "setting": "[49]", "result": "> 100", "unit": "µM"}, {"measurement": "TGI", "setting": "[50]", "result": 41.2, "unit": "µM"}, {"measurement": "TGI", "setting": "[51]", "result": 33.6, "unit": "µM"}, {"measurement": "TGI", "setting": "[52]", "result": 63.5, "unit": "µM"}, {"measurement": "TGI", "setting": "[53]", "result": 46.4, "unit": "µM"}]}
{"smiles": "O=C(O)CNS(=O)(=O)c1ccc(NC(=O)c2ccccc2[N+](=O)[O-])cc1", "values": [{"measurement": "TGI", "setting": "[1]", "result": "> 100", "unit": "µM"}, {"measurement": "TGI", "setting": "[2]", "result": "> 100", "unit": "µM"}, {"measurement": "TGI", "setting": "[3]", "result": "> 100", "unit": "µM"}, {"measurement": "TGI", "setting": "[4]", "result": "> 100", "unit": "µM"}, {"measurement": "TGI", "setting": "[54]", "result": "> 100", "unit": "µM"}, {"measurement": "TGI", "setting": "[5]", "result": "> 100", "unit": "µM"}, {"measurement": "TGI", "setting": "[6]", "result": "> 100", "unit": "µM"}, {"measurement": "TGI", "setting": "[7]", "result": "> 100", "unit": "µM"}, {"measurement": "TGI", "setting": "[8]", "result": "> 100", "unit": "µM"}, {"measurement": "TGI", "setting": "[9]", "result": "> 100", "unit": "µM"}, {"measurement": "TGI", "setting": "[12]", "result": "> 100", "unit": "µM"}, {"measurement": "TGI", "setting": "[13]", "result": "> 100", "unit": "µM"}, {"measurement": "TGI", "setting": "[14]", "result": "> 100", "unit": "µM"}, {"measurement": "TGI", "setting": "[16]", "result": "> 100", "unit": "µM"}, {"measurement": "TGI", "setting": "[17]", "result": "> 100", "unit": "µM"}, {"measurement": "TGI", "setting": "[18]", "result": "> 100", "unit": "µM"}, {"measurement": "TGI", "setting": "[19]", "result": "> 100", "unit": "µM"}, {"measurement": "TGI", "setting": "[21]", "result": "> 100", "unit": "µM"}, {"measurement": "TGI", "setting": "[22]", "result": "> 100", "unit": "µM"}, {"measurement": "TGI", "setting": "[23]", "result": "> 100", "unit": "µM"}, {"measurement": "TGI", "setting": "[24]", "result": "> 100", "unit": "µM"}, {"measurement": "TGI", "setting": "[25]", "result": "> 100", "unit": "µM"}, {"measurement": "TGI", "setting": "[26]", "result": "> 100", "unit": "µM"}, {"measurement": "TGI", "setting": "[27]", "result": "> 100", "unit": "µM"}, {"measurement": "TGI", "setting": "[29]", "result": "> 100", "unit": "µM"}, {"measurement": "TGI", "setting": "[30]", "result": "> 100", "unit": "µM"}, {"measurement": "TGI", "setting": "[31]", "result": "> 100", "unit": "µM"}, {"measurement": "TGI", "setting": "[33]", "result": "> 100", "unit": "µM"}, {"measurement": "TGI", "setting": "[34]", "result": "> 100", "unit": "µM"}, {"measurement": "TGI", "setting": "[35]", "result": "> 100", "unit": "µM"}, {"measurement": "TGI", "setting": "[36]", "result": "> 100", "unit": "µM"}, {"measurement": "TGI", "setting": "[37]", "result": "> 100", "unit": "µM"}, {"measurement": "TGI", "setting": "[38]", "result": "> 100", "unit": "µM"}, {"measurement": "TGI", "setting": "[40]", "result": "> 100", "unit": "µM"}, {"measurement": "TGI", "setting": "[41]", "result": "> 100", "unit": "µM"}, {"measurement": "TGI", "setting": "[42]", "result": "> 100", "unit": "µM"}, {"measurement": "TGI", "setting": "[55]", "result": "> 100", "unit": "µM"}, {"measurement": "TGI", "setting": "[43]", "result": "> 100", "unit": "µM"}, {"measurement": "TGI", "setting": "[44]", "result": "> 100", "unit": "µM"}, {"measurement": "TGI", "setting": "[45]", "result": "> 100", "unit": "µM"}, {"measurement": "TGI", "setting": "[56]", "result": "> 100", "unit": "µM"}, {"measurement": "TGI", "setting": "[47]", "result": "> 100", "unit": "µM"}, {"measurement": "TGI", "setting": "[48]", "result": "> 100", "unit": "µM"}, {"measurement": "TGI", "setting": "[49]", "result": "> 100", "unit": "µM"}, {"measurement": "TGI", "setting": "[50]", "result": "> 100", "unit": "µM"}, {"measurement": "TGI", "setting": "[51]", "result": "> 100", "unit": "µM"}, {"measurement": "TGI", "setting": "[52]", "result": "> 100", "unit": "µM"}, {"measurement": "TGI", "setting": "[53]", "result": "> 100", "unit": "µM"}]}
